Laboratory results as given in ChEMBL document CHEMBL1765002, “Inhibitors of the oncogenic transcription factor AP-1 from Podocarpus latifolius” (J Nat Prod, 2011).

Target: Transcription factor Jun (Homo sapiens, UniProt P05412)
Assay: Inhibition of TPA-induced AP-1 activation in cells expressing beta-lactamase after 18 hrs using FRET substrate by cell-based high-throughput screening assay

Sequence of Transcription factor Jun (P05412 whole entry): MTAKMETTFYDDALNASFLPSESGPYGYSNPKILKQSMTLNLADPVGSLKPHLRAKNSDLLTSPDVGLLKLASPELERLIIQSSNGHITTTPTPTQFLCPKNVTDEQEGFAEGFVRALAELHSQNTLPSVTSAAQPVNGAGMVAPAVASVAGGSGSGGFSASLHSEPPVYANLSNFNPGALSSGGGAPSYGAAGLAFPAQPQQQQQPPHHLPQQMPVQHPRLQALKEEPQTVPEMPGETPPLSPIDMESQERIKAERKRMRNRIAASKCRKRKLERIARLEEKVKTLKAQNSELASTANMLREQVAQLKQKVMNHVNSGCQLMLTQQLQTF

Structure (SMILES)	IC50 [µM]
CC(C)[C@H]1OC(=O)C=C2[C@]3(C)[C@H]4[C@H](OC(=O)[C@@]4(C)[C@@H](O)[C@H]4O[C@H]43)[C@H]3O[C@]213 [INUMAKILACTONE]	4
CC(C)[C@H]1OC(=O)C=C2C1=C[C@H]1OC(=O)[C@@]3(C)CCC[C@@]2(C)[C@@H]13 [NAGILACTONE F]	1.5
